Laboratory results taken from PubChem BioAssay (NCI).
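Assay format: 96-well plates, 48-hour exposure. GI50: concentration for 50% inhibition of growth. TGI denotes the concentration required for complete inhibition of growth.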

Assays:
Assay in all cases: NCI-60 cell line screen, 48 h
BT-549 breast = test system: BT-549 breast
M14 melanoma = test system: M14 melanoma
ACHN renal = test system: ACHN renal
NCI/ADR-RES ovarian = test system: NCI/ADR-RES ovarian
SNB-75 CNS = test system: SNB-75 CNS
NCI-H460 lung = test system: NCI-H460 lung
NCI-H522 lung = test system: NCI-H522 lung
IGROV1 ovarian = test system: IGROV1 ovarian
A498 renal = test system: A498 renal
MCF7 breast = test system: MCF7 breast
MDA-MB-435 = test system: MDA-MB-435
CAKI-1 renal = test system: CAKI-1 renal
T-47D breast = test system: T-47D breast
NCI-H23 lung = test system: NCI-H23 lung
OVCAR-3 ovarian = test system: OVCAR-3 ovarian
COLO 205 colon = test system: COLO 205 colon
DU-145 prostate = test system: DU-145 prostate
HL-60(TB) leukemia = test system: HL-60(TB) leukemia
SF-539 CNS = test system: SF-539 CNS
MOLT-4 leukemia = test system: MOLT-4 leukemia
SW-620 colon = test system: SW-620 colon
KM12 colon = test system: KM12 colon
SR leukemia = test system: SR leukemia
EKVX NSCLC = test system: EKVX NSCLC
NCI-H226 lung = test system: NCI-H226 lung
SK-MEL-2 melanoma = test system: SK-MEL-2 melanoma
OVCAR-4 ovarian = test system: OVCAR-4 ovarian
U251 CNS = test system: U251 CNS

SMILES: COc1ccc(N(CC(=O)NCCC[Te]c2ccccc2)C(=O)CNC(=O)OC(C)(C)C)cc1
- GI50 (BT-549 breast): 1.68 µM
- TGI (BT-549 breast): 4.86 µM
- GI50 (M14 melanoma): 3.53 µM
- TGI (M14 melanoma): 10.6 µM
- GI50 (ACHN renal): 3.12 µM
- TGI (ACHN renal): 8.86 µM
- GI50 (NCI/ADR-RES ovarian): 2.91 µM
- TGI (NCI/ADR-RES ovarian): 7.16 µM
- GI50 (SNB-75 CNS): 2.07 µM
- TGI (SNB-75 CNS): 7.43 µM
- GI50 (NCI-H460 lung): 0.45 µM
- TGI (NCI-H460 lung): 1.85 µM
- GI50 (NCI-H522 lung): 2.56 µM
- TGI (NCI-H522 lung): 10.6 µM
- GI50 (IGROV1 ovarian): 2.24 µM
- TGI (IGROV1 ovarian): 5.42 µM
- GI50 (A498 renal): 2.28 µM
- TGI (A498 renal): 5.35 µM
- GI50 (MCF7 breast): 2.57 µM
- TGI (MCF7 breast): 7.59 µM
- GI50 (MDA-MB-435): 3.31 µM
- TGI (MDA-MB-435): 13.5 µM
- GI50 (CAKI-1 renal): 2.1 µM
- TGI (CAKI-1 renal): 5.6 µM
- GI50 (T-47D breast): 11 µM
- TGI (T-47D breast): 40.9 µM
- GI50 (NCI-H23 lung): 2.5 µM
- TGI (NCI-H23 lung): 6.61 µM
- GI50 (OVCAR-3 ovarian): 3 µM
- TGI (OVCAR-3 ovarian): 7.88 µM
- GI50 (COLO 205 colon): 2.01 µM
- TGI (COLO 205 colon): 3.83 µM
- GI50 (DU-145 prostate): 2.91 µM
- TGI (DU-145 prostate): 7.6 µM
- GI50 (HL-60(TB) leukemia): 2.08 µM
- TGI (HL-60(TB) leukemia): 5.6 µM
- GI50 (SF-539 CNS): 2.14 µM
- TGI (SF-539 CNS): 4.84 µM
- GI50 (MOLT-4 leukemia): 3.08 µM
- TGI (MOLT-4 leukemia): 9.89 µM
- GI50 (SW-620 colon): 3.44 µM
- TGI (SW-620 colon): 14.4 µM
- GI50 (KM12 colon): 3.33 µM
- TGI (KM12 colon): 11.4 µM
- GI50 (SR leukemia): 1.66 µM
- TGI (SR leukemia): 7.75 µM
- GI50 (EKVX NSCLC): 0.343 µM
- TGI (EKVX NSCLC): 2.35 µM
- GI50 (NCI-H226 lung): 2.29 µM
- TGI (NCI-H226 lung): 5.36 µM
- GI50 (SK-MEL-2 melanoma): 2.99 µM
- TGI (SK-MEL-2 melanoma): 6.77 µM
- GI50 (OVCAR-4 ovarian): 22.6 µM
- TGI (OVCAR-4 ovarian): > 100 µM
- GI50 (U251 CNS): 2.37 µM
